Source: ChEMBL document CHEMBL1201862, “PubChem BioAssay data set” (2004)
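In this assay, cells in 96-well plates receive the compound at five concentrations for 48 hours. Endpoints are linearly interpolated between the surrounding concentrations. GI50 = concentration required for 50% inhibition of growth.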 Active and inactive are the calls of the source. No stated cut-off is given here; in the data, active = GI50 up to about 1.1 µM and inactive = higher.

Columns and labels:
Test in all cases: DTP human tumour cell line panel, 48 h
SK-MEL-5 = tested on: SK-MEL-5
Hs-578T = tested on: Hs-578T
M14 = tested on: M14
HCT-15 = tested on: HCT-15
CCRF-CEM = tested on: CCRF-CEM
TK-10 = tested on: TK-10
SF-295 = tested on: SF-295
SN12C = tested on: SN12C
UO-31 = tested on: UO-31
ACHN = tested on: ACHN
BT-549 = tested on: BT-549
MDA-N = tested on: MDA-N
KM12 = tested on: KM12
NCI-H23 = tested on: NCI-H23
K562 = tested on: K562
NCI/ADR-RES = tested on: NCI/ADR-RES
OVCAR-8 = tested on: OVCAR-8
SF-268 = tested on: SF-268
LOX IMVI = tested on: LOX IMVI

SMILES	GI50 (SK-MEL-5)	GI50 (Hs-578T)	GI50 (M14)	GI50 (HCT-15)	GI50 (CCRF-CEM)	GI50 (TK-10)	GI50 (SF-295)	GI50 (SN12C)	GI50 (UO-31)	GI50 (ACHN)	GI50 (BT-549)	GI50 (MDA-N)	GI50 (KM12)	GI50 (NCI-H23)	GI50 (K562)	GI50 (NCI/ADR-RES)	GI50 (OVCAR-8)	GI50 (SF-268)	GI50 (LOX IMVI)
CC1Oc2cc3c(-c4c(O)cc(O)c5c(O)c6c(cc45)OC(C)C(C)C6=O)c(O)cc(O)c3c(O)c2C(=O)C1C (stereo unspecified)	0.158 µM (active)	0.0439 µM (active)	0.226 µM (active)	0.0474 µM	0.0279 µM (active)	0.27 µM (active)	0.061 µM (active)	0.11 µM (active)	0.213 µM (active)	0.183 µM (active)	0.0605 µM (active)	0.359 µM (active)	0.0607 µM (active)	0.122 µM (active)	0.0526 µM (active)	0.162 µM (active)	0.0859 µM (active)	0.254 µM (active)	–
Nc1ccc(Oc2ccc(C34CC5CC(C3)CC(c3ccc(Oc6ccc(N)c(O)c6)cc3)(C5)C4)cc2)cc1O	1.61 µM (inactive)	2.02 µM (inactive)	1.63 µM (inactive)	1.77 µM	–	3.3 µM (inactive)	2.31 µM (inactive)	2.45 µM (inactive)	1.77 µM (inactive)	1.72 µM (inactive)	0.993 µM (active)	1.95 µM (inactive)	1.93 µM (inactive)	1.79 µM (inactive)	3.3 µM (inactive)	2.32 µM (inactive)	1.7 µM (inactive)	1.35 µM (inactive)	1.69 µM (inactive)
CC(C)OC1OC(CO)C(O)CC1n1cc(F)c(=O)[nH]c1=O (stereo unspecified)	> 100 µM (inactive)	86.3 µM (inactive)	> 100 µM (inactive)	> 100 µM	–	> 100 µM (inactive)	> 100 µM (inactive)	> 100 µM (inactive)	> 100 µM (inactive)	> 100 µM (inactive)	> 100 µM (inactive)	> 100 µM (inactive)	> 100 µM (inactive)	> 100 µM (inactive)	34.4 µM (inactive)	> 100 µM (inactive)	> 100 µM (inactive)	59.3 µM (inactive)	94 µM (inactive)
CNC(=S)N/N=C(C)\C(=N/NC(=S)NC)c1ccccc1	42.3 µM (inactive)	17.8 µM (inactive)	61.4 µM (inactive)	53.1 µM	–	> 100 µM (inactive)	34.4 µM (inactive)	–	30.7 µM (inactive)	19.9 µM (inactive)	> 100 µM (inactive)	89.7 µM (inactive)	64.9 µM (inactive)	> 100 µM (inactive)	–	39.3 µM (inactive)	–	74.8 µM (inactive)	42.1 µM (inactive)
CCOC(=O)c1nnsc1NC(=O)Nc1ccc(Cl)cc1	> 100 µM (inactive)	30.1 µM (inactive)	77.1 µM (inactive)	61.9 µM	> 100 µM (inactive)	> 100 µM (inactive)	–	35.2 µM (inactive)	31.1 µM (inactive)	> 100 µM (inactive)	> 100 µM (inactive)	32.8 µM (inactive)	51.6 µM (inactive)	32.8 µM (inactive)	> 100 µM (inactive)	25.1 µM (inactive)	18.5 µM (inactive)	57.5 µM (inactive)	–
Nc1ncnc2c1cnn2Cc1cn(COCC(O)CO)nn1 (stereo unspecified)	> 100 µM (inactive)	14.4 µM (inactive)	> 100 µM (inactive)	> 100 µM	> 100 µM (inactive)	> 100 µM (inactive)	> 100 µM (inactive)	> 100 µM (inactive)	> 100 µM (inactive)	> 100 µM (inactive)	> 100 µM (inactive)	> 100 µM (inactive)	> 100 µM (inactive)	> 100 µM (inactive)	–	> 100 µM (inactive)	> 100 µM (inactive)	18.1 µM (inactive)	> 100 µM (inactive)
C=CC(=C)CCC(Br)C(C)(C)Cl (stereo unspecified)	> 100 µM (inactive)	> 100 µM (inactive)	> 100 µM (inactive)	> 100 µM	87.5 µM (inactive)	> 100 µM (inactive)	> 100 µM (inactive)	> 100 µM (inactive)	> 100 µM (inactive)	> 100 µM (inactive)	> 100 µM (inactive)	> 100 µM (inactive)	> 100 µM (inactive)	> 100 µM (inactive)	> 100 µM (inactive)	> 100 µM (inactive)	> 100 µM (inactive)	> 100 µM (inactive)	–
CC1(C)OCC(C2OC(N3O[C@H](CI)C[C@@H]3c3ccccc3)C3OC(C)(C)OC23)O1 (stereo partly specified)	48.8 µM (inactive)	> 100 µM (inactive)	82 µM (inactive)	> 100 µM	> 100 µM (inactive)	> 100 µM (inactive)	> 100 µM (inactive)	> 100 µM (inactive)	> 100 µM (inactive)	> 100 µM (inactive)	99.3 µM (inactive)	> 100 µM (inactive)	> 100 µM (inactive)	> 100 µM (inactive)	> 100 µM (inactive)	> 100 µM (inactive)	–	> 100 µM (inactive)	> 100 µM (inactive)
CC(=O)Oc1c(C)c2c(c3ncccc13)OC(C)C2 (stereo unspecified)	14.5 µM (inactive)	22.2 µM (inactive)	15.2 µM (inactive)	12.1 µM	6.37 µM (inactive)	22 µM (inactive)	14.7 µM (inactive)	16.2 µM (inactive)	14.8 µM (inactive)	11.8 µM (inactive)	21.1 µM (inactive)	11 µM (inactive)	15.1 µM (inactive)	17.3 µM (inactive)	10.2 µM (inactive)	15.6 µM (inactive)	14.5 µM (inactive)	14.4 µM (inactive)	–
COc1ccc(-c2cc(-c3ccc(C)cc3)n(C3OC(COC(C)=O)C(OC(C)=O)C(OC(C)=O)C3OC(C)=O)c(=S)c2C#N)cc1 (stereo unspecified)	> 100 µM (inactive)	36.6 µM (inactive)	> 100 µM (inactive)	> 100 µM	–	> 100 µM (inactive)	> 100 µM (inactive)	> 100 µM (inactive)	> 100 µM (inactive)	> 100 µM (inactive)	> 100 µM (inactive)	> 100 µM (inactive)	> 100 µM (inactive)	> 100 µM (inactive)	> 100 µM (inactive)	> 100 µM (inactive)	> 100 µM (inactive)	> 100 µM (inactive)	> 100 µM (inactive)
C1CCNCC1.CN(C)c1ccc(/C=C2/NC(=S)NC2=O)cc1	30.8 µM (inactive)	> 100 µM (inactive)	68.1 µM (inactive)	45.3 µM	24.9 µM (inactive)	59 µM (inactive)	40.5 µM (inactive)	> 100 µM (inactive)	44.5 µM (inactive)	64.7 µM (inactive)	49.4 µM (inactive)	36.3 µM (inactive)	–	61.5 µM (inactive)	–	77.4 µM (inactive)	97.9 µM (inactive)	82 µM (inactive)	49 µM (inactive)
COC(=O)C1=C(C)C(=O)[C@]23C(CCCC[C@H]12)C(=O)[C@H](C(=O)OC)C3C (stereo partly specified)	–	> 100 µM (inactive)	> 100 µM (inactive)	> 100 µM	> 100 µM (inactive)	> 100 µM (inactive)	> 100 µM (inactive)	> 100 µM (inactive)	> 100 µM (inactive)	> 100 µM (inactive)	> 100 µM (inactive)	> 100 µM (inactive)	> 100 µM (inactive)	> 100 µM (inactive)	> 100 µM (inactive)	> 100 µM (inactive)	> 100 µM (inactive)	> 100 µM (inactive)	> 100 µM (inactive)
